Assay results published in PubChem BioAssay (NCI).
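Tested at 5 concentrations; 48 h exposure; 96-well plates; endpoints linearly interpolated, else capped at highest concentration. At the GI50, growth is halved. TGI: total growth inhibition.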

Assays:
Test in all cases: NCI anticancer screen, dose series, 48 h
[1] = tested on: SNB-19 CNS
[2] = tested on: HCC-2998 colon
[3] = tested on: KM12 colon
[4] = tested on: SW-620 colon
[5] = tested on: CCRF-CEM leukemia
[6] = tested on: PC-3 prostate
[7] = tested on: RPMI-8226 leukemia
[8] = tested on: OVCAR-5 ovarian
[9] = tested on: HS 578T breast
[10] = tested on: HOP-92 NSCLC
[11] = tested on: M14 melanoma
[12] = tested on: HCT-15 colon
[13] = tested on: MALME-3M melanoma
[14] = tested on: BT-549 breast
[15] = tested on: SK-MEL-28 melanoma
[16] = tested on: K-562 leukemia
[17] = tested on: RXF 393 renal
[18] = tested on: SR leukemia
[19] = tested on: NCI-H522 lung
[20] = tested on: EKVX NSCLC
[21] = tested on: SF-539 CNS
[22] = tested on: MOLT-4 leukemia
[23] = tested on: HT29 colon
[24] = tested on: HCT-116 colon
[25] = tested on: SNB-75 CNS
[26] = tested on: ACHN renal
[27] = tested on: TK-10 renal
[28] = tested on: SK-MEL-2 melanoma
[29] = tested on: MDA-MB-435
[30] = tested on: NCI-H460 lung
[31] = tested on: UO-31 renal
[32] = tested on: NCI/ADR-RES ovarian
[33] = tested on: 786-0 renal
[34] = tested on: T-47D breast
[35] = tested on: CAKI-1 renal
[36] = tested on: COLO 205 colon
[37] = tested on: HOP-62 NSCLC
[38] = tested on: OVCAR-8 ovarian
[39] = tested on: MCF7 breast
[40] = tested on: SK-OV-3 ovarian
[41] = tested on: A498 renal
[42] = tested on: U251 CNS
[43] = tested on: SF-295 CNS
[44] = tested on: DU-145 prostate
[45] = tested on: SK-MEL-5 melanoma
[46] = tested on: A549 NSCLC
[47] = tested on: IGROV1 ovarian
[48] = tested on: SN12C renal
[49] = tested on: SF-268 CNS
[50] = tested on: MDA-MB-231 breast
[51] = tested on: UACC-62 melanoma
[52] = tested on: LOX IMVI melanoma
[53] = tested on: OVCAR-4 ovarian
[54] = tested on: NCI-H226 lung
[55] = tested on: HL-60(TB) leukemia
[56] = tested on: OVCAR-3 ovarian
[57] = tested on: NCI-H23 lung
[58] = tested on: UACC-257 melanoma

`COC(=O)[C@]12CCC(C)(C)C[C@H]1C1=CC[C@@H]3[C@@]4(C)C/C(=C/c5cccnc5)C(=O)C(C)(C)[C@@H]4CC[C@@]3(C)[C@]1(C)CC2` gave a GI50 [1] of 15.1 µM, a TGI [1] of 77.4 µM and a GI50 [2] of 5.56 µM. For the same compound, the TGI [2] was 19.5 µM, the GI50 [3] was 5.06 µM and the TGI [3] was 19.9 µM. It also gave a GI50 [4] of 5.74 µM, a TGI [4] of 33.3 µM and a GI50 [5] of 2.81 µM. The TGI [5] was 13.7 µM, the GI50 [6] was 2.37 µM and the TGI [6] was 10.4 µM. For the same compound, the GI50 [7] was 2.31 µM, the TGI [7] was 6.39 µM and the GI50 [8] was 14.1 µM. For the same compound, the TGI [8] was 38.2 µM, the GI50 [9] was 22.7 µM and the TGI [9] was > 100 µM. The GI50 [10] was 1.87 µM, the TGI [10] was 8.41 µM and the GI50 [11] was 3.63 µM. It also gave a TGI [11] of 13.4 µM, a GI50 [12] of 4.58 µM and a TGI [12] of 30.5 µM. It also gave a GI50 [13] of 5.24 µM, a TGI [13] of 18.2 µM and a GI50 [14] of 2.56 µM. For the same compound, the TGI [14] was 7.93 µM, the GI50 [15] was 6.89 µM and the TGI [15] was 20 µM. For the same compound, the GI50 [16] was 3.2 µM, the TGI [16] was > 100 µM and the GI50 [17] was 4.25 µM. The TGI [17] was 17.5 µM, the GI50 [18] was 4.52 µM and the TGI [18] was 93.6 µM. For the same compound, the GI50 [19] was 8.58 µM, the TGI [19] was 28.7 µM and the GI50 [20] was 10.9 µM. It also gave a TGI [20] of 31.1 µM, a GI50 [21] of 7.43 µM and a TGI [21] of 20.7 µM. The GI50 [22] was 2.12 µM, the TGI [22] was 6.17 µM and the GI50 [23] was 5 µM. For the same compound, the TGI [23] was 65.9 µM, the GI50 [24] was 2.71 µM and the TGI [24] was 12.1 µM. For the same compound, the GI50 [25] was 17.6 µM, the TGI [25] was 48.5 µM and the GI50 [26] was 8.05 µM. It also gave a TGI [26] of 24.5 µM, a GI50 [27] of 21.4 µM and a TGI [27] of 55.5 µM. For the same compound, the GI50 [28] was 11.6 µM, the TGI [28] was 32.1 µM and the GI50 [29] was 5.05 µM. It also gave a TGI [29] of 20 µM, a GI50 [30] of 5.53 µM and a TGI [30] of 26.6 µM. The GI50 [31] was 3.21 µM, the TGI [31] was 24.4 µM and the GI50 [32] was 6.75 µM. It also gave a TGI [32] of 32.5 µM, a GI50 [33] of 3.58 µM and a TGI [33] of 17.4 µM. For the same compound, the GI50 [34] was 2.96 µM, the TGI [34] was 28 µM and the GI50 [35] was 6.87 µM. For the same compound, the TGI [35] was 22.3 µM, the GI50 [36] was 6.51 µM and the TGI [36] was 25.3 µM. It also gave a GI50 [37] of 13.6 µM, a TGI [37] of 67 µM and a GI50 [38] of 3.82 µM. For the same compound, the TGI [38] was 60.8 µM, the GI50 [39] was 3 µM and the TGI [39] was 14.7 µM. For the same compound, the GI50 [40] was 27.5 µM, the TGI [40] was > 100 µM and the GI50 [41] was 11.6 µM. For the same compound, the TGI [41] was 26.4 µM, the GI50 [42] was 13.5 µM and the TGI [42] was 46.9 µM. It also gave a GI50 [43] of 9.67 µM, a TGI [43] of 40.4 µM and a GI50 [44] of 8.86 µM. For the same compound, the TGI [44] was > 100 µM, the GI50 [45] was 5.58 µM and the TGI [45] was 17.9 µM. The GI50 [46] was 11.9 µM, the TGI [46] was > 100 µM and the GI50 [47] was 5.2 µM. It also gave a TGI [47] of 31.5 µM, a GI50 [48] of 4.86 µM and a TGI [48] of 23.4 µM. The GI50 [49] was 11.8 µM, the TGI [49] was 54 µM and the GI50 [50] was 10.2 µM. It also gave a TGI [50] of 32.2 µM, a GI50 [51] of 2.89 µM and a TGI [51] of 12.8 µM. It also gave a GI50 [52] of 4.63 µM, a TGI [52] of 17.8 µM and a GI50 [53] of 11.3 µM. For the same compound, the TGI [53] was > 100 µM, the GI50 [54] was 3.97 µM and the TGI [54] was 17.9 µM. The GI50 [55] was 2.06 µM, the TGI [55] was 5.2 µM and the GI50 [56] was 4.16 µM. It also gave a TGI [56] of 27.9 µM, a GI50 [57] of 8.05 µM and a TGI [57] of 29.8 µM. For the same compound, the GI50 [58] was 12.5 µM and the TGI [58] was 42.8 µM.
